Measured values: patent US9598441B2, “Therapeutic compounds and methods” (Wayne State University, priority 2011, dated 2017)
Residues, ends and D or L forms follow the SMILES beside them. *: point of attachment. Cbz = O=C(OCc1ccccc1)*; CH2F = FC*

What was measured:
[1] = tested on: caspase-3, caspase-8, caspase-9, caspase-2; assay: ApoAlert Caspase profiling plate, fluorescence-based; assay type: cell-based; conditions: pre-treatment before CFM-4
Procedure: For apoptosis ELISA assay, 4−5×10^2 cells were seeded in 96-well plates and treated essentially as indicated in the MTT assay above. Untreated as well as treated cells were lysed, and levels of mono and oligo-nucleosomal DNA fragments in the lysates were determined by measuring optical density of each sample at 405 nm and 495 nm wavelengths. […] For TUNEL labeling, the cells were treated with various agents, fixed, labeled and photographed essentially as detailed in immuno-localization protocols described before (Zhang, L., Levi, E., Majumder, P., Yu, Y., Aboukameel, A., Du, J., Xu, H., Mohammad, R. M., Hatfield, J. S., Wali, A., Adsay, V., Majumdar, A. P. N., and Rishi, A. K. (2007) Mol. Cancer. Ther. 6(5), 1661-1672). […] Cell lysates derived from vehicle DMSO (Control) or CFM-4-treated cells were added to the wells that had immobilized fluorogenic caspase-3, caspase-8, caspase-9, or caspase-2 substrates. The fluorescence released from the activated caspase-dependent cleavage of respective substrate was detected by a plate reader at the excitation and emission wavelengths of 380 nm and 460 nm, respectively.

[2] = biological target: T1, CARP-1 binding with APC-2 (Homo sapiens, UniProt Q8IX12); assay: Fluorescence polarization assay (FPA) for inhibitors of CARP-1-APC-2 binding; conditions: fluorescein-tagged A-epitope peptide and Gst-APC-2 (685-754)
T1 construct: made in house; host or cells: E. coli BL-21 (DE3)
T1 sequence (Q8IX12 951-980 limits assumed): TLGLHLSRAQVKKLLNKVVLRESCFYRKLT
Procedure: Although, several formats for FP are indicated in the published literature (Inglese, J., Johnson, R. L., Simeonov, A., Xia, M., Zheng, W., Austin, C. P., Auld, D. S. (2007) Nat. Chem. Biol. 3(8), 466-79), the assays using 96-well or higher density plates are often and routinely employed. Optimization of FP for HTS involves several steps including the determination of Kd values, optimization of the buffer conditions, incubation and measurement times, and determination of the DMSO tolerance of the assay. Our goal was to minimize variation and to aim for adequate signal:background without adversely effecting the sensitivity of the assay. The FP polarization values in milli-polarization (mp) were measured to determine changes in the mp (Amp=mp of bound peptide mp of free peptide), the Kd and Ki constants of the binding. A 30-mer CARP-1 peptide that contained APC-2-binding epitope (A-epitope peptide) was commercially synthesized (US Biologicals, MA), labeled with fluorescein at the N-terminus, and purified to >98% purity. Increasing concentrations of A-epitope peptide were incubated with the indicated quantities of the affinity-purified Gst-APC-2 (685-754) protein in assay buffer containing 0.01% triton-X100. Affinity-purified Gst-NEMO (221-317) was included as a negative control. The Δmp was measured by excitation at 485 nm and emission at 538 nm.
The kinetics of CARP-1 binding with APC-2 was determined, and whether this binding could be exploited to identify SMIs of CARP-1-APC-2 interaction was investigated. For this purpose, a FPA utilizing the affinity-purified Gst-APC-2 (685-754) protein and the fluorescein-tagged A-epitope peptide was developed as detailed in methods. […] The signal to background ratio of 6 underscored robustness of this assay. Since, the quality (precision) and suitability of the FPA for HTS is usually defined by the Z′ factor (25, 40), we utilized the positive and negative control mean signals (μc+ and μc−, respectively) and their standard deviations (σc+ and σc−) to calculate the Z′ factor using the equation Z′=1−[3(σc++σc−)/(μc+−μc−)]. […]

[3] = biological target: T2, His-TAT-HA-tagged A-epitope peptide [CARP-1 (951-980)] (Homo sapiens, UniProt Q8IX12); assay: In vitro binding of SMIs, immobilized A-epitope peptide pre-incubated with CFM; conditions: 100 μM, 30 min at RT; WB with anti-Gst
T2 construct: wild-type or scrambled His-TAT-HA-CARP-1 (951-980) peptides; made in house; host or cells: E. coli BL-21 (DE3)
T2 sequence (Q8IX12 951-980 limits assumed): T1 sequence (Q8IX12 951-980 limits assumed)
Procedure: (§1) The CFM-4 and 5 were separately dissolved in DMSO to obtain a stock of 20-50 mM. For in vitro binding experiments we utilized affinity-purified Gst-APC-2 (685-754) and His-TAT-HA-tagged A-epitope (WT) peptide. Ten nanogram of the His-TAT-HA-tagged A-epitope (WT) peptide was first allowed to bind with Ni-NTA beads (ProBond, InVitrogen), and then the reaction was incubated with DMSO (control), 100 μM CFM-4, or 100 μM CFM-5 for 30 min at RT. The reactions were then subjected to three washes with the binding buffer, followed by incubation with 10 ng of affinity-purified Gst-APC-2 (685-754) peptide for 30 min at RT. The reactions were washed again for three times with PBS, eluted and analyzed on a SDS-PAGE followed by western blotting (WB) with anti-Gst antibodies. A similar strategy was performed by immobilizing the Gst-APC-2 (685-754) peptide with Gst-beads. The beads were washed, incubated with DMSO or the CFMs, and the reactions washed again. The reactions were then allowed to incubate with affinity purified A-epitope peptide, and the complexes analyzed by SDS-PAGE followed by WB with anti HA-tag antibodies.

[4] = biological target: T3, Gst-APC-2 (685-754) (Homo sapiens, UniProt Q9UJX6); assay: In vitro binding of SMIs, immobilized Gst-APC-2 pre-incubated with CFM; conditions: WB with anti HA-tag
T3 construct: immobilizing the Gst-APC-2 (685-754) peptide with Gst-beads; made in house; host or cells: E. coli BL-21 (DE3)
Procedure: as §1

[5] = tested on: CARP-1, cyclin B1, Cdc20, Cdh1, APC-2, CDKIs, caspases, p38, Bcl2 family proteins; assay: Western blot of protein levels in treated cells; assay type: cell-based; conditions: for effect of pre-treatment on CFM-4-dependent loss of cyclin B1 and Cdc20 proteins (WB): pre-treatment before CFM-4
Procedure: (§2) Logarithmically growing cells were either untreated or treated with different agents for various time periods. The cells were lysed to prepare protein extracts. IP was carried out by incubating approximately 1 mg of the protein lysate with appropriate antibodies, and the immunoprecipitates or cell lysates were then electrophoresed on 9-12% SDS-polyacrylamide gels, and transferred to nitrocellulose membranes. The membranes were subsequently probed with various antibodies to determine expression/presence of the corresponding proteins. The cell growth inhibition was assessed by using MTT assay. Briefly, MTT (3-[4,5-Dimethylthiazol-2-yl]-2,5diphenyltetrazolium bromide) was dissolved in sterile 1×PBS to prepare a stock solution of 5 mg/ml. The solution was subsequently filtered through 0.2 μm filter and stored at 2-8° C. 4−5×10^2 cells were seeded in 96-well plates. After 72 h incubation with or without different agents, MTT stock solution was added to each culture being assayed to equal one tenth the original culture volume, followed by incubation of cells at 37° C. for another 2 h. At the end of the incubation, the media was removed and cells were treated with 100-200 μl of DMSO to solubilize the dye. The assessment of the live cells was derived by measuring the absorbance of the converted dye at wavelength of 570 nm.

[6] = tested on: HBC, colon, prostate, pancreatic cancer, MPM and lymphoma cells; assay: MTT cell viability assay, cancer cells; assay type: cell-based, human; conditions: combination with CFM-4
Procedure: as §2
To test whether CFMs that interfere with CARP-1 binding with APC-2 modulate cell growth, HBC, colon, prostate, pancreatic cancer, MPM and lymphoma cells, as well as the immortalized, mammary epithelial MCF-10A cells were utilized. The cells were either treated with vehicle (DMSO) or various doses of the respective compound for a period of 72 h, and percent of live/viable cells for each compound was determined relative to the untreated controls as described in Methods.

T3 sequence (Q9UJX6 685-754): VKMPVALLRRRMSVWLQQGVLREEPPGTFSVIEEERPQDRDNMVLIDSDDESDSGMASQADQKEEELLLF

## COC(=O)CC[C@H](NC(=O)[C@H](CC(C)C)NC(=O)OCc1ccccc1)C(=O)N[C@@H](Cc1cnc[nH]1)C(=O)N[C@@H](CC(=O)OC)C(=O)CF [z-LEHD-fmk] (Cbz-LE(OMe)HD(OMe)-CH2F)
[1]
  effect of pre-treatment on CFM-4-dependent activation of caspase 8 or caspase 9: abolished activation

## O=C1N(CCc2ccccc2)c2ccc(Br)cc2C12NN=C(c1ccccc1)S2 (stereo not shown) [CFM-5, 5-bromo-1-phenethyl-5′-phenyl-3′H-spiro[indoline-3,2′-[1,3,4]thiadiazol]-2-one]
[2]
  IC50: 1400 nM
[3]
  binding of immobilized A-epitope peptide with Gst-APC-2 (685-754) after pre-incubation with compound: abrogated its binding
[4]
  binding of immobilized Gst-APC-2 (685-754) with A-epitope peptide after pre-incubation with compound: failed to abolish its binding

## CC(C)C[C@H](NC(=O)[C@H](Cc1ccccc1)NC(=O)c1cnccn1)B(O)O [velcade, Bortezomib, reference compound]
[5]; 50 nM velcade 6 h or 24 h, 20 μM CFM-4 24 h
  CARP-1 levels (WB): modest increase in CARP-1 levels
[5]; 50 nM velcade combined with 20 μM CFM-4
  effect on CFM-4-dependent loss of cyclin B1 or Cdc20 proteins (WB): failed to interfere

## CC[C@H](C)[C@H](NC(=O)[C@H](CCC(=O)O)NC(=O)[C@@H](NC(C)=O)C(C)C)C(=O)N[C@H](C=O)CC(=O)O [Ac-VEOD-CHO, reference compound] (Ac-VEID-aldehyde)
[5]
  effect of pre-treatment on CFM-4-dependent loss of cyclin B1 and Cdc20 proteins (WB): blocked CFM-4-dependent loss

## CC[C@H](C)[C@H](NC(=O)OCc1ccccc1)C(=O)N[C@@H](CCC(=O)OC)C(=O)N[C@H](C(=O)N[C@@H](CC(=O)OC)C(=O)CF)[C@@H](C)O [z-IETD-fmk] (Cbz-IE(OMe)TD(OMe)-CH2F)
[1]
  effect of pre-treatment on CFM-4-dependent activation of caspase 8 or caspase 9: abolished activation

## COC(=O)C[C@H](NC(=O)[C@H](C)NC(=O)[C@@H](NC(=O)OCc1ccccc1)C(C)C)C(=O)CF [zVAD-fMK, z-VAD-fmk, reference compound] (Cbz-Val-Ala-Asp(OMe)-CH2F)
[6]
  effect on cell growth suppression by CFM-4 (MTT): blocked the ability of CFM-4 to suppress cell growth
[5]
  effect of pre-treatment on CFM-4-dependent loss of cyclin B1 and Cdc20 proteins (WB): blocked CFM-4-dependent loss
